Measured values: patent publication US7678918B2, “Intermediates for imidazonaphthyridines” (3M Innovative Properties Company, priority 1997, dated 2010)

Experiments:
IFN = experiment: Cytokine Induction in Human Cells: interferon (IFN) secreted by PBMCs, A549/encephalomyocarditis bioassay; assay type: cell-based; conditions: 18 to 24 hours; also: call rule not given here
In short: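 Human PBMCs from healthy donors at 1.5-2×10^6 cells/mL in RPMI with 10% FBS, exposed to compounds (typically 0.1 to 100 μM, ≤1% DMSO) for 18 to 24 h at 37° C. Secreted IFN measured by A549/encephalomyocarditis virus cytopathic-effect bioassay, in alpha reference units/mL against NIH human leukocyte IFN standard.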

TNF = experiment: Cytokine Induction in Human Cells: tumor necrosis factor (TNF) secreted by PBMCs, ELISA; assay type: cell-based; conditions: 18 to 24 hours; also: call rule not given here
In short: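 Human donor PBMCs at 1.5-2×10^6 cells/mL in RPMI with 10% FBS were exposed to compound, generally at 0.1 to 100 μM (≤1% DMSO final), for 18 to 24 h at 37 °C. Secreted TNF in supernatant was measured by ELISA and reported as pg/mL.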

SMILES	IFN induction (IFN; Dose Concentration 0.1 μM)	IFN induction (IFN; Dose Concentration 1.0 μM)	IFN induction (IFN; Dose Concentration 10.0 μM)	IFN induction (IFN; Dose Concentration 100.0 μM)	TNF induction (TNF; Dose Concentration 0.1 μM)	TNF induction (TNF; Dose Concentration 1.0 μM)	TNF induction (TNF; Dose Concentration 10.0 μM)	TNF induction (TNF; Dose Concentration 100.0 μM)	melting point
CCCCc1nc2c(N)nc3cccnc3c2n1CCNC(=O)C1CCC(=O)O1 (stereo not shown) [Example 97, N-[2-(4-Amino-2-butyl-1H-imidazo[4,5-c][1,5]naphthyridin-1-yl)ethyl]-5-oxotetrahydro-2-furancarboxamide]	−	−	+	+	−	−	+	+	153 to 154 °C
CCCCc1nc2c(N)nc3cccnc3c2n1CCN [Example 91, 2-(4-Amino-2-butyl-1H-imidazo[4,5-c][1,5]naphthyridin-1-yl)ethaneamine]	+	+	+	+	+	+	+	+	175 to 176 °C
CC(C)(O)Cn1c(Cc2ccccc2)nc2c(N)nc3cccnc3c21 [Example 65, 1,1-Dimethyl-2-(4-amino-2-phenylmethyl[1,5]napthyridin-1-yl)ethanol]	+	+	+	+	−	+	+	+	211 to 213 °C
CCCCc1nc2c(N)nc3cccnc3c2n1CCCCN [Example 46, 4-(4-Amino-2-butyl-1H-imidazo[4,5-c][1,5]naphthyridin-1-yl)butaneamine]	+	+	+		+	+	+	+	212 to 213 °C
NCCCCn1cnc2c(N)nc3cccnc3c21 [Example 111, 4-(4-amino-1H-imidazo[4,5-c][1,5]naphthyridin-1-yl)butaneamine]	−	−	+	+	−	−	+	+	161 to 163 °C
CCCCc1nc2c(N)nc3cccnc3c2n1CCNC(=O)C1CCCCC1 [Example 94, N^1-[2-(4-Amino-2-butyl-1H-imidazo[4,5-c][1,5]naphthyridin-1-yl)ethyl]-1-cyclohexanecarboxamide]	−	+	+	+	−	+	+	+	188 to 190 °C
CCCCc1nc2c(N)nc3cccnc3c2n1CCCCNC(=O)CSc1ccncc1 [Example 110, N^1-[4-(4-Amino-2-butyl-1H-imidazo[4,5-c][1,5]naphthyridin-1-yl)butyl]-2-(4-pyridylsulfanyl)acetamide]	+	+	+	+	−	+	+	+	127.5 to 129 °C
CCCCc1nc2c(N)nc3cccnc3c2n1CCCCNC(=O)CSc1ncccn1 [Example 109, N^1-[4-(4-Amino-2-butyl-1H-imidazo[4,5-c][1,5]naphthyridin-1-yl)butyl]-2-(2-pyrimidinylsulfanyl)acetamide]	+	+	+	+	−	±	+	+	156 to 160 °C (dec.)
CCCCc1nc2c(N)nc3cccnc3c2n1CCNC(=O)c1c(C)noc1C [Example 103, N-[2-(4-Amino-2-butyl-1H-imidazo[4,5-c][1,5]naphthyridin-1-yl)ethyl]-3,5-dimethyl-4-isoxazolecarboxamide]	−	−	+	+	−	−	+	+	188 to 189 °C
CCCCc1nc2c(N)nc3cccnc3c2n1CCNC(=O)Cn1cc(C)c(=O)[nH]c1=O [Example 114, N^1-[4-(4-Amino-2-butyl-1H-imidazo[4,5-c][1,5]naphthyridin-1-yl)ethyl]-2-(5-methyl-2,4-dioxo-1,2,3,4-tetrahydro-1-pyrimidinyl)acetamide]	−	−	+	+	−	−	+	+	241 to 242 °C
CCCCc1nc2c(N)nc3cccnc3c2n1CCCOC(C)C [Example 75, 2-Butyl-1-(3-isopropoxypropyl)-1H-imidazo[4,5-c][1,5]naphthyridine-4-amine]	−	+	+	+	−	−	+	−	174 to 175 °C
CCCCc1nc2c(N)nc3cccnc3c2n1CCCCNC(=O)c1ccc(C(OCCN(C)C)c2ccccc2)cc1 (stereo not shown) [Example 112, N^1-[4-(4-Amino-2-butyl-1H-imidazo[4,5-c][1,5]naphthyridin-1-yl)butyl]-4-{[2-(dimethylamino)ethoxy](phenyl)methyl}benzamide]	+	+	+	±	+	+	−	−	105 to 108 °C
CCCCOCCCn1c(CCCC)nc2c(N)nc3cccnc3c21 [Example 80, 1-(3-Butoxypropyl)-2-butyl-1H-imidazo[4,5-c][1,5]naphthyridin-4-amine]	−	+	+	−	−	−	+	−	101 to 101.5 °C
CCCCc1nc2c(N)nc3cccnc3c2n1CCCCNC(=O)OC(C)(C)C [Example 45, 1,1-Dimethylethyl N-[4-(4-Amino-2-butyl-1H-imidazo[4,5-c][1,5]naphthyridin-1-yl)butyl]carbamate]	+	+	+	−	−	+	+	−	148.5 to 149.5 °C
CCCCc1nc2c(N)nc3cccnc3c2n1CCNC(=O)c1cccc(O)n1 [Example 99, N-[2-(4-Amino-2-butyl-1H-imidazo[4,5-c][1,5]naphthyridin-1-yl)ethyl]-6-hydroxy-2-pyridinecarboxamide]	−	−	+	+	−	−	+	+	258 to 260 °C
C/C=C/C(=O)NCCn1c(CCCC)nc2c(N)nc3cccnc3c21 [Example 93, N^1-[2-(4-Amino-2-butyl-1H-imidazo[4,5-c][1,5]naphthyridin-1-yl)ethyl]-(E)-2-butenamide]	−	+	+	+	−	+	+	+	198 to 200 °C
CCCCc1nc2c(N)nc3c(c2n1CCNC(=O)c1cc(C(C)(C)C)c(O)c(C(C)(C)C)c1)NCCC3 [Example 104, N^1-[2-(4-Amino-2-butyl-6,7,8,9-tetrahydro-1H-imidazo[4,5-c][1,5]naphthyridin-1-yl)ethyl]-3,5-di-(1,1-dimethylethyl)-4-hydroxybenzamide]	−	+	+	−	−	−	+	−	208 to 210 °C
CCCCc1nc2c(N)nc3cccnc3c2n1CCNC(=O)C(CC(C)C)NC(=O)OC(C)(C)C (stereo not shown) [Example 101, 1,1-Dimethylethyl N-[1-({[2-(4-Amino-2-butyl-1H-imidazo[4,5-c][1,5]naphthyridin-1-yl)ethyl]amino}carbonyl)-3-methylbutyl]carbamate]	−	−	+	+	−	−		+	184 to 185 °C
CCCCc1nc2c(N)nc3cccnc3c2n1CCNC(=O)OC(C)(C)C [Example 90, 1,1-Dimethylethyl N-[2-(4-Amino-2-butyl-1H-imidazo[4,5-c][1,5]naphthyridin-1-yl)ethyl]carbamate]	±	+	+	+	−	−	+	+	118 to 120 °C
